Experimental findings from article PMC8291137 (ACS Medicinal Chemistry Letters, 2021) are described below.

Data set [1] is described as follows: Shake-flask aqueous solubility in Britton-Robinson buffer.

`Cn1cc(-c2cc(-c3cc(Cl)cc(OCc4scnc4C(F)(F)F)c3)c(=O)n(-c3cccnc3)c2)c(=O)[nH]c1=O` [Compound 21]: the “cytotoxicity (in words)” value in the data set on Vero E6 cells is given as “no cytotoxicity”. In addition, the “aqueous solubility (in words)” value in data set [1] is “good aqueous solubility”.
